Data set [1] concerns SH-SY5Y. The data set can be described thus: Neuroprotective activity against oxygen glucose-deprivation induced toxicity in human SH-SY5Y cells at 10 uM relative to control. The data set is classed as functional.
For data set [2], the system named is RAW264.7. The data set can be described thus: Antiinflammatory activity in mouse RAW264.7 cells assessed as inhibition of LPS-induced NO production at 10 uM relative to control. The data set is classed as functional.
For data set [3], the system named is RAW264.7. The data set can be described thus: Cytotoxicity against mouse RAW264.7 cells assessed as decrease in cell viability by MTT assay. In kind it is cell-based. A general note: Tetrazolium dyes change colour on reduction, which living cells bring about.
Data set [4] relates to SH-SY5Y. The data set can be described thus: Neuroprotective activity against oxygen glucose-deprivation induced toxicity in human SH-SY5Y cells at […] relative to control. The data set is classed as functional.

Take `C[C@@H]1CC[C@@]2(OC1)O[C@H]1C[C@H]3[C@@H]4CCc5cc(OCc6cn(Cc7ccccc7F)nn6)ccc5[C@H]4CC[C@]3(C)[C@H]1[C@@H]2C`: the Activity in the data set on SH-SY5Y [1] is listed as 12.1%. Also, the inhibition (in general, the relative decrease from the control value, in per cent) at 10 µM in the data set with RAW264.7 [2] was 14.2%.

Turning to `Cc1ccc(Cn2cc(COc3ccc4c(c3)CC[C@@H]3[C@@H]4CC[C@]4(C)[C@@H]5[C@H](C[C@@H]34)O[C@]3(CC[C@@H](C)CO3)[C@H]5C)nn2)cc1`, the Activity with SH-SY5Y [1] was determined as 34.1%. The inhibition at 10 µM in the data set with RAW264.7 [2] amounted to 35.6%.

`C[C@@H]1CC[C@@]2(OC1)O[C@H]1C[C@H]3[C@@H]4CCc5cc(OCc6cn(-c7ccccc7C#N)nn6)ccc5[C@H]4CC[C@]3(C)[C@H]1[C@@H]2C`: the results for the Activity in the data set on SH-SY5Y [1] and in the data set with RAW264.7 [3] were 81.2% and “Toxic”, respectively.

`C[C@@H]1CC[C@@]2(OC1)O[C@H]1C[C@H]3[C@@H]4CCc5cc(OCc6cn(-c7cc(F)cc(F)c7)nn6)ccc5[C@H]4CC[C@]3(C)[C@H]1[C@@H]2C` had an Activity with SH-SY5Y [1] of 71.4%.

In turn, `C[C@@H]1CC[C@@]2(OC1)O[C@H]1C[C@H]3[C@@H]4CCc5cc(OCc6cn(Cc7ccc(F)cc7)nn6)ccc5[C@H]4CC[C@]3(C)[C@H]1[C@@H]2C` had an Activity in the data set with SH-SY5Y [1] of 50.7%. Moreover, the inhibition at 10 µM in the data set with RAW264.7 [2] amounted to 19.7%.

Regarding `C[C@@H]1CC[C@@]2(OC1)O[C@H]1C[C@H]3[C@@H]4CCc5cc(OCc6cn(Cc7ccccc7)nn6)ccc5[C@H]4CC[C@]3(C)[C@H]1[C@@H]2C`, in the data set on SH-SY5Y [1], the Activity worked out at 35.5%. Also, the inhibition at 10 µM with RAW264.7 [2] was determined as 23.5%.

The molecule `C[C@@H]1CC[C@@]2(OC1)O[C@H]1C[C@H]3[C@@H]4CCc5cc(OCc6cn(-c7ccccc7)nn6)ccc5[C@H]4CC[C@]3(C)[C@H]1[C@@H]2C` registered an Activity in the data set with SH-SY5Y [1] of 12.1%.

`COc1ccc(Cn2cc(COc3ccc4c(c3)CC[C@@H]3[C@@H]4CC[C@]4(C)[C@@H]5[C@H](C[C@@H]34)O[C@]3(CC[C@@H](C)CO3)[C@H]5C)nn2)cc1` had an Activity in the data set on SH-SY5Y [1] of 73.9%. Further, the inhibition at 10 µM in the data set with RAW264.7 [2] came out at 40.4%.

`COc1ccc(-n2cc(COc3ccc4c(c3)CC[C@@H]3[C@@H]4CC[C@]4(C)[C@@H]5[C@H](C[C@@H]34)O[C@]3(CC[C@@H](C)CO3)[C@H]5C)nn2)cc1` showed an Activity with SH-SY5Y [1] of 40.1%. In addition, the inhibition at 10 µM in the data set on RAW264.7 [2] turned out to be 9.9%.

In the data set on SH-SY5Y [1], `CCCn1cc(COc2ccc3c(c2)CC[C@@H]2[C@@H]3CC[C@]3(C)[C@@H]4[C@H](C[C@@H]23)O[C@]2(CC[C@@H](C)CO2)[C@H]4C)nn1` gave an Activity of 73.9%.

In the data set with SH-SY5Y [1], `Cc1ccc(-n2cc(COc3ccc4c(c3)CC[C@@H]3[C@@H]4CC[C@]4(C)[C@@H]5[C@H](C[C@@H]34)O[C@]3(CC[C@@H](C)CO3)[C@H]5C)nn2)cc1` yielded an Activity of 3.3%.

Regarding `C[C@@H]1CC[C@@]2(OC1)O[C@H]1C[C@H]3[C@@H]4CCc5cc(OCc6cn(Cc7cc(F)c(F)cc7F)nn6)ccc5[C@H]4CC[C@]3(C)[C@H]1[C@@H]2C`, in the data set on SH-SY5Y [1], the Activity was found to be 16.5%.

Molecule `C[C@@H]1CC[C@@]2(OC1)O[C@H]1C[C@H]3[C@@H]4CCc5cc(OCc6cn(Cc7ccc(C#N)cc7)nn6)ccc5[C@H]4CC[C@]3(C)[C@H]1[C@@H]2C` returned an Activity with SH-SY5Y [1] of 57.6%. Besides, the inhibition at 10 µM in the data set with RAW264.7 [2] turned out to be 11.9%.

Molecule `C[C@@H]1CC[C@@]2(OC1)O[C@H]1C[C@H]3[C@@H]4CCc5cc(OCc6cn(Cc7ccc(C(F)(F)F)cc7)nn6)ccc5[C@H]4CC[C@]3(C)[C@H]1[C@@H]2C` came in with an Activity in the data set with SH-SY5Y [1] of 66.4%. Also, the inhibition at 10 µM with RAW264.7 [2] came to 9.5%.

Turning to `C[C@@H]1CC[C@@]2(OC1)O[C@H]1C[C@H]3[C@@H]4CCc5cc(OCc6cn(Cc7cccc(F)c7)nn6)ccc5[C@H]4CC[C@]3(C)[C@H]1[C@@H]2C`, the Activity with SH-SY5Y [1] is recorded as 51.6%. For the same molecule, in the data set on RAW264.7 [2], the inhibition at 10 µM was 30.6%.

In the data set on SH-SY5Y [4], `CC(=O)N[C@@H](CS)C(=O)O` [ACETYLCYSTEINE] registered an Activity of 84.3%.

`C[C@@H]1CC[C@@]2(OC1)O[C@H]1C[C@H]3[C@@H]4CC=C5C[C@@H](O)CC[C@]5(C)[C@H]4CC[C@]3(C)[C@H]1[C@@H]2C` [DISOGENIN] had an Activity in the data set on SH-SY5Y [1] of 3.5%. For the same molecule, the inhibition at 10 µM in the data set on RAW264.7 [2] came to 5.9%.

In the case of `COc1ccc2c(c1)c(CC(=O)O)c(C)n2C(=O)c1ccc(Cl)cc1` [INDOMETHACIN], the inhibition at 10 µM in the data set with RAW264.7 [2] is 34.9%.

These data come from ChEMBL document CHEMBL4811264, “Design and synthesis of novel diosgenin-triazole hybrids targeting inflammation as potential neuroprotective agents” (Bioorg Med Chem Lett, 2021).
